Read-outs that look alike come from different tables or passages of the source.
Tests used:
[1] = test system: Key Grass and Sedge Weeds as well as Grass Crops; test: Post-Emergent Test II: postemergent herbicidal activity, visual rating after 14 d (Table 8); type: in vivo; conditions: post-emergence, 336 h; for pest or weed control at 35 g/ha: 35 g ai/ha; for pest or weed control at 70 g/ha: 70 g ai/ha; for pest or weed control at 140 g/ha: 140 g ai/ha
How it was run: (§1)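 Visual scoring at 14 d, 0 (no injury) to 100 (complete kill), relative to untreated plants. Postemergent overhead track-sprayer application, 187 L/ha, at a top rate plus serial ½×–1/16× rates, to plants grown 7–21 d at about 23–29° C day under a 15 h photoperiod, then subirrigated.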

[2] = test system: Key Broadleaf Weed and Crop Species; test: Post-Emergent Test II: postemergent herbicidal activity, visual rating after 14 d (Table 7); type: in vivo; conditions: post-emergence, 336 h; for pest or weed control at 35 g/ha: 35 g ai/ha; for pest or weed control at 70 g/ha: 70 g ai/ha; for pest or weed control at 140 g/ha: 140 g ai/ha
How it was run: as §1

[3] = barnyardgrass (Echinochloa crus-galli), read-out: Visual Growth Reduction (%) 14 Days After Application, ECHCG
[4] = giant foxtail (Setaria faberi), read-out: Visual Growth Reduction (%) 14 Days After Application, SETFA
[5] = maize, corn (Zea mays), read-out: Visual Growth Reduction (%) 14 Days After Application, ZEAMX
[6] = rice (Oryza sativa), read-out: Visual Growth Reduction (%) 14 Days After Application, ORYSA
[7] = wheat, spring (Triticum aestivum), read-out: Visual Growth Reduction (%) 14 Days After Application, TRZAS
[8] = yellow nutsedge (Cyperus esculentus), read-out: Visual Growth Reduction (%) 14 Days After Application, CYPES
[9] = ABUTH: velvetleaf (Abutilon theophrasti), read-out: Visual Growth Reduction (%) 14 Days After Application ABUTH
[10] = AMARE: redroot pigweed (Amaranthus retroflexus), read-out: Visual Growth Reduction (%) 14 Days After Application AMARE
[11] = BRSNN: oilseed rape, canola (Brassica napus), read-out: Visual Growth Reduction (%) 14 Days After Application BRSNN
[12] = CHEAL: lambsquarters (Chenopodium album), read-out: Visual Growth Reduction (%) 14 Days After Application CHEAL
[13] = EPHHL: wild poinsettia (Euphorbia heterophylla), read-out: Visual Growth Reduction (%) 14 Days After Application EPHHL
[14] = HELAN: sunflower (Helianthus annuus), read-out: Visual Growth Reduction (%) 14 Days After Application HELAN

| SMILES | pest or weed control at 35 g/ha [1, 3] [%] | pest or weed control at 70 g/ha [1, 3] [%] | pest or weed control at 140 g/ha [1, 3] [%] | pest or weed control at 35 g/ha [1, 4] [%] | pest or weed control at 70 g/ha [1, 4] [%] | pest or weed control at 140 g/ha [1, 4] [%] | pest or weed control at 35 g/ha [1, 5] [%] | pest or weed control at 70 g/ha [1, 5] [%] | pest or weed control at 140 g/ha [1, 5] [%] | pest or weed control at 35 g/ha [1, 6] [%] | pest or weed control at 70 g/ha [1, 6] [%] | pest or weed control at 140 g/ha [1, 6] [%] | pest or weed control at 35 g/ha [1, 7] [%] | pest or weed control at 70 g/ha [1, 7] [%] | pest or weed control at 140 g/ha [1, 7] [%] | pest or weed control at 35 g/ha [1, 8] [%] | pest or weed control at 70 g/ha [1, 8] [%] | pest or weed control at 140 g/ha [1, 8] [%] | pest or weed control at 35 g/ha [2, 9] [%] | pest or weed control at 70 g/ha [2, 9] [%] | further results |
| --- | --- | --- | --- | --- | --- | --- | --- | --- | --- | --- | --- | --- | --- | --- | --- | --- | --- | --- | --- | --- | --- |
| COC(=O)c1nc(-c2cccc3c2OCO3)cc(N)c1Cl [Compound 93] | 0 to 29 | 0 to 29 | 0 to 29 | 0 to 29 | 0 to 29 | 0 to 29 | 0 to 29 | 0 to 29 | 0 to 29 | 0 to 29 | 0 to 29 | 0 to 29 | 0 to 29 | 0 to 29 | 0 to 29 | 0 to 29 | 0 to 29 | 0 to 29 | 0 to 29 | 0 to 29 | pest or weed control at 140 g/ha [2, 9]: 45 to 59%; pest or weed control at 35 g/ha [2, 10]: 0 to 29%; pest or weed control at 70 g/ha [2, 10]: 0 to 29%; pest or weed control at 140 g/ha [2, 10]: 60 to 74%; pest or weed control at 35 g/ha [2, 11]: 0 to 29%; pest or weed control at 70 g/ha [2, 11]: 30 to 44%; pest or weed control at 140 g/ha [2, 11]: 60 to 74%; pest or weed control at 35 g/ha [2, 12]: 60 to 74%; pest or weed control at 70 g/ha [2, 12]: 75 to 84%; pest or weed control at 140 g/ha [2, 12]: 95 to 100%; pest or weed control at 35 g/ha [2, 13]: 0 to 29%; pest or weed control at 70 g/ha [2, 13]: 0 to 29%; pest or weed control at 140 g/ha [2, 13]: 0 to 29%; pest or weed control at 35 g/ha [2, 14]: 45 to 59%; pest or weed control at 70 g/ha [2, 14]: 60 to 74%; pest or weed control at 140 g/ha [2, 14]: 75 to 84% |
| Nc1c(F)c(-c2ccc3c(c2)COC3)nc(C(=O)O)c1Cl [Compound 104] | 0 to 29 | 0 to 29 | 0 to 29 | 0 to 29 | 0 to 29 | 0 to 29 | 0 to 29 | 0 to 29 | 0 to 29 | 0 to 29 | 0 to 29 | 0 to 29 | 0 to 29 | 0 to 29 | 0 to 29 | 0 to 29 | 0 to 29 | 0 to 29 | 0 to 29 | 0 to 29 | pest or weed control at 140 g/ha [2, 9]: 0 to 29%; pest or weed control at 35 g/ha [2, 10]: 0 to 29%; pest or weed control at 70 g/ha [2, 10]: 0 to 29%; pest or weed control at 140 g/ha [2, 10]: 0 to 29%; pest or weed control at 35 g/ha [2, 11]: 0 to 29%; pest or weed control at 70 g/ha [2, 11]: 0 to 29%; pest or weed control at 140 g/ha [2, 11]: 0 to 29%; pest or weed control at 35 g/ha [2, 12]: 45 to 59%; pest or weed control at 70 g/ha [2, 12]: 85 to 94%; pest or weed control at 140 g/ha [2, 12]: 85 to 94%; pest or weed control at 35 g/ha [2, 13]: 0 to 29%; pest or weed control at 70 g/ha [2, 13]: 0 to 29%; pest or weed control at 140 g/ha [2, 13]: 0 to 29%; pest or weed control at 35 g/ha [2, 14]: 45 to 59%; pest or weed control at 70 g/ha [2, 14]: 75 to 84%; pest or weed control at 140 g/ha [2, 14]: 75 to 84% |
| COC(=O)c1nc(-c2ccc(Cl)c3c2OC(F)(F)O3)nc(N)c1OC [Compound 95] | 0 to 29 | 0 to 29 | 0 to 29 | 0 to 29 | 0 to 29 | 0 to 29 | 0 to 29 | 0 to 29 | 0 to 29 | 0 to 29 | 0 to 29 | 0 to 29 | 0 to 29 | 0 to 29 | 0 to 29 | 0 to 29 | 45 to 59 | 45 to 59 | 45 to 59 | 75 to 84 | pest or weed control at 140 g/ha [2, 9]: 75 to 84%; pest or weed control at 35 g/ha [2, 10]: 95 to 100%; pest or weed control at 70 g/ha [2, 10]: 95 to 100%; pest or weed control at 140 g/ha [2, 10]: 95 to 100%; pest or weed control at 35 g/ha [2, 11]: 45 to 59%; pest or weed control at 70 g/ha [2, 11]: 45 to 59%; pest or weed control at 140 g/ha [2, 11]: 60 to 74%; pest or weed control at 35 g/ha [2, 12]: 95 to 100%; pest or weed control at 70 g/ha [2, 12]: 95 to 100%; pest or weed control at 140 g/ha [2, 12]: 95 to 100%; pest or weed control at 35 g/ha [2, 13]: 0 to 29%; pest or weed control at 70 g/ha [2, 13]: 0 to 29%; pest or weed control at 140 g/ha [2, 13]: 0 to 29%; pest or weed control at 35 g/ha [2, 14]: 95 to 100%; pest or weed control at 70 g/ha [2, 14]: 95 to 100%; pest or weed control at 140 g/ha [2, 14]: 95 to 100% |
